According to patent US6211244A, “Calcium receptor-active compounds” (priority 1995, dated 2001):
Several values for one entry are separate records, joined by “and”; a condition that tells them apart may be missing. Identical values can stand only once. Counter-ions that a name gives are not always drawn. Like-named read-outs stand apart in the source and are kept apart here.

Biological target: T1, human calcium receptor (Homo sapiens, UniProt P41180, R990G)
T1 construct: expressed in transfected cells; host or cells: HEK 293
T1 sequence (P41180 20-1078 R990G): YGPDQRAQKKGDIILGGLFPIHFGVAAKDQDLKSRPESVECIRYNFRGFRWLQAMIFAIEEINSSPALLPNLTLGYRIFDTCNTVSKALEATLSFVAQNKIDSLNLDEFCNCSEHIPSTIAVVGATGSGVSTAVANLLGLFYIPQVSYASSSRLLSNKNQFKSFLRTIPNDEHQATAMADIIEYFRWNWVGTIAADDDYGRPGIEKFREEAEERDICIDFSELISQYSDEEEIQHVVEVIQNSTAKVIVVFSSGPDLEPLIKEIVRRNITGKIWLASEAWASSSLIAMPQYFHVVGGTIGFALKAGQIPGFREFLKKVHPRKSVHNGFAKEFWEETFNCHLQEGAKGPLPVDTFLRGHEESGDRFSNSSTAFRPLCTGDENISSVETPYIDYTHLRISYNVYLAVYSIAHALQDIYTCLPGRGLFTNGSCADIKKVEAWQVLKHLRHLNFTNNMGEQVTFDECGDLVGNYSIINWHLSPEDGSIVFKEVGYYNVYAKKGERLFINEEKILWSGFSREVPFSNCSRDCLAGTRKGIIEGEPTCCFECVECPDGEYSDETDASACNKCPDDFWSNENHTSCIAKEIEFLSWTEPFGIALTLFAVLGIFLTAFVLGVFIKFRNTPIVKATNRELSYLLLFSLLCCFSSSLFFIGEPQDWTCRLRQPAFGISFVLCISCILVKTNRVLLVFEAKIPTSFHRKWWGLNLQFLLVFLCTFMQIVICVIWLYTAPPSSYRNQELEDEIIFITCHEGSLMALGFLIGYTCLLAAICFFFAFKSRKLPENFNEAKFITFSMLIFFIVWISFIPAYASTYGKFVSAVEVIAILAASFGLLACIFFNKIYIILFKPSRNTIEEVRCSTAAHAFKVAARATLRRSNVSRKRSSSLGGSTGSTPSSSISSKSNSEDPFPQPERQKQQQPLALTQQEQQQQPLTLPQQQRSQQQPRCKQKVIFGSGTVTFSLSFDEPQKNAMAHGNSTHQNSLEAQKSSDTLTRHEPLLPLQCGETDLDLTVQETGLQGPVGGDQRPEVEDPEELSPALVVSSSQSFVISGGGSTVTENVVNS
Assay: increases in [Ca^2+ ]i in HEK-293 cells expressing the human calcium receptor (fura-2 loaded HEK 293/pHuPCaR4.0 cells), % activity
Type: cell-based

| % activity | SMILES | % activity (33 ng/mL) | % activity (330 ng/mL) | % activity (3300 ng/mL) [%] |
| --- | --- | --- | --- | --- |
| 45 | CC(NC1CCc2ccccc2C1)c1ccccc1 (mixture of isomers) [Compound 4B] | 8% | – | – |
| – | CC(C=Cc1ccccc1)NC(C)c1ccccc1 (mixture of isomers) [Compound 5D] | 18% | 62% | – |
| – | CC(NC1CCc2ccccc21)c1cccc2ccccc12 (mixture of isomers) [Compound 9A] | 56% | 82% | – |
| – | COc1cccc(C(C)NC(C)c2ccc(C(C)(C)C)cc2)c1 (mixture of isomers) [Compound 13G] | 82% | 128% | 111 |
| – | CC(NC(C)c1ccc(C(C)(C)C)cc1)c1ccccc1 (mixture of isomers) [Compound 13H] | 36% | 48% | 88 |
| – | CC(NC(C)c1ccc2ccccc2c1)c1ccc(C(C)(C)C)cc1 (mixture of isomers) [Compound 13I] | 3% | 52% | 85 |
| – | CC(C)Cc1ccc(C(C)CNC(C)c2cccc3ccccc23)cc1 (mixture of isomers) [Compound 14A] | 10% | 78% | 98 |
| – | CC(O)c1ccc(CNC(C)c2cccc3ccccc23)cc1 (mixture of isomers) [Compound 17B] | 61% | 92% | – |
| – | CCC(NC(C)c1cccc2ccccc12)c1ccc(OC)cc1 (mixture of isomers) [Compound 17G] | 119% | 128% | 125 |
| – | Cc1cc(C(C)NC(C)c2cccc3ccccc23)ccc1OCc1ccccc1 (mixture of isomers) [Compound 25X] | 72% | 94% | 96 |
| – | COc1ccc(C(NC(C)c2cccc3ccccc23)C2CC2)cc1 (single isomer, unassigned) [Compound 17I] | 76% | 97% | 118 |
| – | COc1cccc(C(C)NCCC(C)c2ccc(Cl)cc2)c1 (centres unmarked) [5B/5C, N-[3-methyl-3-(4-chlorophenyl)propyl]-1-(3-methoxyphenyl)ethylamine] | 20% | 65% | – |
| – | CC(NC(C)c1cc2ccccc2c2ccccc12)c1cccc2ccccc12 (centres unmarked) [10S/10T] | 65% | 86% | – |
| – | CC(NCC1CCc2ccccc2C1)c1cccc2ccccc12 (centres unmarked) [10W/10X] | 61% and 53% | 98% and 81% | – |
| – | COc1cccc([C@@H](C)NC(C)CCc2ccccc2Cl)c1 (some centres unmarked) [21C = 4U] | 76% | 114% | 134 |
| – | CC(NCCCc1ccccc1)c1ccccc1 (centres unmarked) [Compound 1D] | – | 53% | – |
| – | CC(NCCCC1CCCCC1)c1ccccc1 (centres unmarked) [Compound 1T] | – | 76% | – |
| – | CC(NCCCc1ccccc1)c1c[nH]c2ccccc12 (centres unmarked) [Compound 2Q] | 4% | 56% | – |
| – | COc1ccccc1C(C)NCCC(c1ccccc1)c1ccccc1 (centres unmarked) [Compound 2S] | 29% | 67% | – |
| – | CC(NCCC(c1ccccc1)c1ccccc1)c1cccc(Cl)c1 (centres unmarked) [Compound 2Y] | 10% | 59% | – |
| – | CC(NCCC(c1ccccc1)c1ccccc1)c1ccccc1F (centres unmarked) [Compound 3A] | 7% | 41% | – |
| 45 | CC(NCCC(c1ccccc1)c1ccccc1)c1ccccc1C(F)(F)F (centres unmarked) [Compound 3D] | 4% | – | – |
| – | CC(NCCCc1ccccc1)c1ccccc1 (centres unmarked) [Compound 3H] | – | 84% | – |
| – | Cc1ccccc1C(C)NCCC(c1ccccc1)c1ccccc1 (centres unmarked) [Compound 3L] | 28% | 81% | – |
| – | Cc1cccc(C(C)NCCC(c2ccccc2)c2ccccc2)c1 (centres unmarked) [Compound 3M] | 19% | 64% | – |
| 45 | CC(NCCC(c1ccccc1)c1ccccc1)c1ccc(O)cc1 (centres unmarked) [Compound 3R] | 2% | – | – |
| – | CC(NCCC(c1ccccc1)c1ccccc1)c1cccc2ccccc12 (centres unmarked) [Compound 3U, N-(3,3-diphenylpropyl)-(1-naphthyl)ethylamine] | 57% | 89% | – |

| % activity | SMILES | % activity (33 ng/mL) | % activity (330 ng/mL) | % activity (3300 ng/mL) [%] |
| --- | --- | --- | --- | --- |
| – | COc1cccc(C(C)NCc2cccc3ccccc23)c1 (centres unmarked) [Compound 3V] | 14% | 56% | – |
| – | CC(N[C@H](C)c1ccccc1)c1cccc2ccccc12 (some centres unmarked) [Compound 4G, N-[1-(1-naphthyl)ethyl)-1-phenylethylamine] | 46% | 83% | – |
| – | CC(NCc1cccc2ccccc12)c1ccccc1 (centres unmarked) [Compound 4I] | 9% | 40% | – |
| – | CC(NCc1ccc2ccccc2c1)c1ccccc1 (centres unmarked) [Compound 4J] | 8% | 47% | – |
| – | COc1cccc(C(C)NCCCc2ccccc2F)c1 (centres unmarked) [Compound 4M] | 34% | 68% | – |
| – | COc1cccc([C@@H](C)NCCCc2ccc(F)cc2)c1 [Compound 4P] | – | 81% and 61% | – |
| – | COc1cccc(C(C)NCCCc2ccccc2C(F)(F)F)c1 (centres unmarked) [Compound 4V] | 59% | 93% | – |
| – | CC(COc1ccccc1)NC(C)c1ccccc1 (centres unmarked) [Compound 5G] | 16% | 58% | – |
| – | C[C@@H](NCC=C(c1ccccc1)c1ccccc1)c1ccccc1 [Compound 5L] | 16% | 60% | – |
| – | CC(NCC=Cc1ccccc1[N+](=O)[O-])c1ccccc1 (centres unmarked) [Compound 5M] | 21% | 73% | – |
| – | CCOc1cccc([C@@H](C)NCCCc2ccccc2)c1 [Compound 6R, (R)-N-(3-phenylpropyl)-1-(3-ethoxyphenyl)ethylamine] | 52% | 94% | – |
| – | CCOc1cccc([C@@H](C)NCCCc2ccccc2Cl)c1 [Compound 6T, (R)-N-[3-(2-chlorophenyl)propyl]-1-(3-ethoxyphenyl)ethylamine] | 78% | 129% | 123 |
| – | COc1cccc([C@@H](C)NCCCc2cccc(Cl)c2)c1 [Compound 6X] | 52% | 84% | – |
| – | C[C@@H](NCCCc1ccccc1Cl)c1cccc(OC(F)(F)F)c1 [Compound 7U] | – | 49% | – |
| – | CC(=O)c1cccc(C(C)NCCCc2ccccc2)c1 (centres unmarked) [Compound 7W] | – | 76% | – |
| – | COc1cccc(C(C)NCCCC2CCCCC2)c1 (centres unmarked) [Compound 7X] | – | 85% | – |
| – | COc1cc(OC)cc(C(C)NCCCc2ccccc2)c1 (centres unmarked) [Compound 8A] | – | 54% | – |
| – | CSc1cccc(C(C)NCCCc2ccccc2)c1 (centres unmarked) [Compound 8J, N-(3-phenylpropyl)-1-(3-thiomethylphenyl)ethylamine hydrochloride] | 77% | 104% | – |
| – | CSc1cccc(C(C)NCCCc2ccccc2Cl)c1 (centres unmarked) [Compound 8K] | 81% | 98% | – |
| – | COc1cccc(C(C)NCCCc2cc(OC)c(OC)c(OC)c2)c1 (centres unmarked) [Compound 8S] | 42% | 73% | – |
| – | COc1cccc(C(C)NCC=Cc2ccccc2OC)c1 (centres unmarked) [Compound 8T] | 55% | 85% | – |
| – | COc1cccc([C@@H](C)NCCCc2ccccc2OC)c1 [Compound 8U, N-3-(2-methoxyphenyl)-1-propyl-(R)-3-methoxy-α-methylbenzylamine hydrochloride] | 82% | 129% | 123 |
| – | COc1cccc([C@@H](C)NCCCc2ccc(C)cc2)c1 [Compound 8X] | 40% | 75% | – |
| – | CC(N[C@H](C)c1cccc2ccccc12)c1ccc2ccccc2c1 (some centres unmarked) [Compound 8Z] | 97% | 101% | – |
| – | C[C@@H](N[C@H](C)c1cccc2ccccc12)c1ccc2ccccc2c1.Cl [Compound 9R, (R)-N-(1-(2-naphthyl)ethyl)-(R)-1-(1-naphthyl)ethylamine hydrochloride] | 101% | 108% | – |
| – | CC(NCc1ccc(-c2ccccc2)cc1)c1cccc2ccccc12 (centres unmarked) [Compound 10N] | 77% | 97% | 106 |

| SMILES | % activity | % activity (33 ng/mL) | % activity (330 ng/mL) | % activity (3300 ng/mL) [%] |
| --- | --- | --- | --- | --- |
| CC(NCCC(c1ccccc1)c1ccccc1)c1ccccc1Cl (centres unmarked) [Compound 2X] | 15 | – | 66% | – |
| CC(NCCC(c1ccccc1)c1ccccc1)c1cccc(F)c1 (centres unmarked) [Compound 3B] | 15 | – | 52% | – |
